Source: article PMC12876990, “Targeting secreted PLA2 interactions with EGFR and vimentin to arrest prostate tumour growth” (Cell Death & Disease, 2025)
Entries after “also recorded” stand apart in the source; their conditions may differ. Square brackets hold non-standard residues; d marks the D form. Peptide text beside a SMILES is read from it. 2Nal = N[C@@H](Cc1ccc2ccccc2c1)C(=O)O

Legend:
[1] = Pharmacokinetics of c2 after oral administration to Sprague Dawley rats (LC MS/MS); type: in vivo; details: 100 mg/kg po
Method: Rat studies were performed under contract to the accredited animal research establishment ICP Firefly Pty Ltd. (Alexandria, NSW, Australia; Ref. No AW96/042, NSW Dep’t Primary Industries) with ethics approval from the ICP Firefly animal ethics committee. Briefly, male rats (Sprague Dawley, n = 5 / group) were treated with c2 (single dose 100 mg/kg suspended in 0.1% carboxymethylcellulose, po) and housed in metabolic cages. Animals were sacrificed at 1, 2, 8 or 24 h, blood and tissue samples taken for further analysis, with urine and faeces collected for 1, 6 and 16 hours respectively. Following extraction, c2 concentration in plasma was measured using a validated LC MS/MS assay (limit of detection 7.5 ng/mL and lower limit of quantitation 15 ng/mL in plasma, accuracy 98% and imprecision 12.7% at […]).

[2] = 28-day repeated dose oral toxicity study (OECD 407): overall toxicity, mortality; type: in vivo, male Sprague Dawley rats
Method: Potential toxicity of c2 was evaluated with a 28-day repeated dose oral toxicity study (OECD 407) in male Sprague Dawley rats, with a recovery period. Animals (n = 10 per group) were treated with vehicle (1% carboxymethylcellulose in distilled water), c2 at 1 mg/kg or at 20 mg/kg every three days for 28 days. Animals were sacrificed on day 29 and blood and tissues were taken for further analysis. Two recovery groups treated concomitantly with the main study (n = 5, vehicle of 20 mg/kg c2) were monitored for a further 14-day treatment-free period, sacrificed on Day 43 and blood and tissues taken for analysis. (Data available on request).
2.8.4. Repeated dose toxicity
Repeated do se toxicity is the adver se effects o ccurring within a short time of several repeated administrations of a test item over a defined period.
The test item is the article that is the subject of the study.
Vehicle is any agent, which serves as a carrier used to mix, disperse, or solubilize the test item or reference item to facilitate the administration/application to the test system.
2.9. Principle of the test method
The test item suspension or vehicle was administered orally by gavage every three days for 28 days to three groups of male rat s at two do se le vels (low - 1 and high - 20 mg/kg) to as ses s toxicity. Two vehicle control groups were dosed with the vehicle. A recovery group was included to investigate reversibility of any toxicity and persistence or delayed occurrence of […]
Daily clinical obs ervations were performed. Weekly detailed clinical examination s were performed on all animals. Functional observations were performed in the last week of treatment.
Body weights were monitored weekly throughout the study. Feed intake was measured weekly.
Gross necropsy was conducted in all animals th at died or were killed during the study. Full blood analysis and detailed histopathology was performed on conclusion of the main study.
All tissues and carcasse s were placed in 10% formalin and retained for a period of 6 months. […]
3.1. Regulatory references
The study was conducted according to the OECD Guidelines for the Testing of Chemical s, No.407 - Repeated Dose 28-Day Oral Toxicity Study in Rodents. [Adopted: 3 October […]
3.1.2. Good Laboratory Practice
This study was conducted in accordance with the Organization of Economic Cooperation and Development (OECD) Principles of Good Laboratory Practice (as revised in 1997) ENV/MC/CHEM (98) 17. The study was performed in accordance with the agreed protocol and with ICP Firefly Pty Ltd Standard Operating Procedures (SOPs).
3.1.3. Animal Welfare Act compliance
The experimental protocol was approved by the ICP Firefly Animal Ethics Committee, and […]
Regulation 2005 and the Code of Practice under t hat Regulation. It was granted Approval […]
The Sponsor provided a Certificate of Analysis for the test item, which is attached a s an appendix to the report (Appendix A Certificate of Analysis). […]
3.4.1. Justification for species selection
The Specific Pathogen Free [SPF] male Sprague Dawley rat was selected since it is widely accepted and recognised by international guidelines as an appropriate experimental model […]
3.4.2. Species, strain source and housing
A total of 40 young adult Spe cific Pathogen Fr ee Mal e Sprague D awley rats weighing between 189 and 212 grams the b eginning of the experiment were used for the study. The animals were obtained from Animal Resources Ce ntre (ARC), WA, Australia. […]

[3] = 28-day oral toxicity study: body weights; type: in vivo, male Sprague Dawley rats
Method: 3.6. Procedure for test item administration
(§1) intragastric cannula attached to a 3 mL syringe.
3.7. Observation of animals
(§2) groups: Day 29; recovery groups: Day 43).
(Appendix C Study Data Spreadsheets).
(§3) report (Appendix C Study Data Spreadsheets). […]

[4] = 28-day oral toxicity study: functional observation; type: in vivo, male Sprague Dawley rats; details: for Grip strength (mean) Forelimb / Grip strength (mean) Hind limb: week 4
Method: 3.6. Procedure for test item administration […]
as §1
3.7. Observation of animals […]
as §2
(Appendix C Study Data Spreadsheets). […]
as §3
3.7.5. Functional observation […]
s upine drop, grip strength test. […]

Compound: CC(C)C[C@@H]1NC(=O)[C@H](Cc2ccc3ccccc3c2)NC(=O)[C@H](CCCNC(=N)N)NC(=O)[C@H](Cc2ccc3ccccc3c2)NC(=O)[C@H](CO)NC1=O [c2, cyclo-((2-Nal)-Leu-Ser-(2-Nal)-Arg)] (cyclo([2Nal]LS[2Nal]R))
- distribution after oral dosing [1]: presence in the plasma, kidney and liver
- excretion [1]: majority excreted in faeces
- time of peak in urine [1]: 2 h
- effective concentration relative to the maximum observed dosage with no toxicity ([2]; 0.1 mg/kg vs 40 mg/kg): 400 times
- urinalysis and blood analysis ([2]; 1 and 20 mg/kg): no test item related effects
- toxicity (all measures) ([2]; 1 and 20 mg/kg po every three days over 28 days): no observable toxicity; also recorded: no toxic effects
- mortality related to the treatment ([2]; 1 and 20 mg/kg, main and recovery study): No mortalities
- NOAEL at 672 h ([2]; male, Sprague Dawley, rat, in vivo, po, Appendix 1, read-out: maximum observed dosage with no toxicity): 40 mg/kg
- percentage body weight gain ([3]; 4-week observation period, Gr 2, 1 mg/kg): 55.4 ± 8.84%
- body weight gains vs vehicle control ([3]; 28-day and 42-day experimental period): comparable
- Mean body weight ([3]; Day 1, Gr 2, 1 mg/kg): 261 ± 14.0 g
- Mean body weight ([3]; Day 1, Grs 3 & 5, 20 mg/kg): 257 ± 11.3 g
- Mean body weight ([3]; Day 8, Gr 2, 1 mg/kg): 312 ± 15.3 g
- Mean body weight ([3]; Day 8, Grs 3 & 5, 20 mg/kg): 312 ± 14.1 g
- Mean body weight ([3]; Day 15, Gr 2, 1 mg/kg): 356 ± 22.3 g
- Mean body weight ([3]; Day 15, Grs 3 & 5, 20 mg/kg): 354 ± 20.8 g
- Mean body weight ([3]; Day 22, Gr 2, 1 mg/kg): 387 ± 24.9 g
- Mean body weight ([3]; Day 22, Grs 3 & 5, 20 mg/kg): 392 ± 24.5 g
- Mean body weight ([3]; Day 28, Gr 2, 1 mg/kg): 406 ± 31.0 g
- Mean body weight ([3]; Day 28, Grs 3 & 5, 20 mg/kg): 414 ± 27.3 g
- Mean body weight ([3]; Day 29 after overnight fasting, Gr 2, 1 mg/kg): 395 ± 28.0 g
- Mean body weight ([3]; Day 29 after overnight fasting, Gr 3, 20 mg/kg): 395 ± 31.5 g
- Mean body weight ([3]; Day 36, Gr 5 recovery, 20 mg/kg): 458 ± 12.0 g
- Mean body weight ([3]; Day 42, Gr 5 recovery, 20 mg/kg): 480 ± 11.6 g
- Mean body weight ([3]; Day 43 after overnight fasting, Gr 5 recovery, 20 mg/kg): 460 ± 12.3 g
- body weight gain ([3]; Week 1, Gr 2, 1 mg/kg): 19.6 ± 2.49%
- functional observations tests ([4]; Week 4): no effect
- Grip strength (mean) Forelimb ([4]; Gr 2, 1 mg/kg): 487 ± 33.0
- Grip strength (mean) Hind limb ([4]; Gr 2, 1 mg/kg): 59 ± 3.2
- Grip strength (mean) Forelimb ([4]; Gr 3, 20 mg/kg): 458 ± 39.9
- Grip strength (mean) Hind limb ([4]; Gr 3, 20 mg/kg): 57 ± 2.5
- Grip strength (mean) Forelimb ([4]; Gr 5, 20 mg/kg): 456 ± 47.2
- Grip strength (mean) Hind limb ([4]; Gr 5, 20 mg/kg): 61 ± 3.8
